Measured values taken from ChEMBL document CHEMBL1201862, “PubChem BioAssay data set” (2004).
Calls of active or inactive are those of the source.

What was measured:
[1] = molecular target: T1, Heat shock factor protein 1 (Mus musculus, UniProt P38532); experiment: inhibition of MG132-induced HSE-luciferase signal, confirmation, cell-based, NIH3T3, luminescence, dose retest (AID 2382); format: functional;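 note: NIH3T3 fibroblasts with HSF1-driven luciferase reporter stressed by proteasome inhibitor MG132; luminescence from HSF1-driven luciferase expression after 8 hours of MG132 stress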
T1 sequence (P38532 whole entry): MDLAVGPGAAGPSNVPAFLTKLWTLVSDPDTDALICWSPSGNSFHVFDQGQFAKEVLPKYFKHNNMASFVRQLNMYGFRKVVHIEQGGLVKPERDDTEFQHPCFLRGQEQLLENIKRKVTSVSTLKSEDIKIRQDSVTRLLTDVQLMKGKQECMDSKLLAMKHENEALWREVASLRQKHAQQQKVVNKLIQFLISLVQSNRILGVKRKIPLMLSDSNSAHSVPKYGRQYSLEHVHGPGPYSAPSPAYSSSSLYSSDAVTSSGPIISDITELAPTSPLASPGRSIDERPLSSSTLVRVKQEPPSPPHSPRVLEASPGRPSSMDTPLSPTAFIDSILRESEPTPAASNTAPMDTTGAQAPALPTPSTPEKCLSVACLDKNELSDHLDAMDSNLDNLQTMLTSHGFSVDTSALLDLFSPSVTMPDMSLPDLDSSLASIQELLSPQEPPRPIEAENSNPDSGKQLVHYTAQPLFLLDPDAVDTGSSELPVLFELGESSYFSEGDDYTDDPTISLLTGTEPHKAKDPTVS

[2] = molecular target: T2, Rac GTPase-activating protein 1 (Homo sapiens, UniProt Q9H0H5); experiment: MgcRacGAP GTPase-activating activity inhibitors, confirmation, biochemical, ADP Hunter fluorescence, primary and confirmatory (AID 624330); format: functional
T2 sequence (Q9H0H5 whole entry): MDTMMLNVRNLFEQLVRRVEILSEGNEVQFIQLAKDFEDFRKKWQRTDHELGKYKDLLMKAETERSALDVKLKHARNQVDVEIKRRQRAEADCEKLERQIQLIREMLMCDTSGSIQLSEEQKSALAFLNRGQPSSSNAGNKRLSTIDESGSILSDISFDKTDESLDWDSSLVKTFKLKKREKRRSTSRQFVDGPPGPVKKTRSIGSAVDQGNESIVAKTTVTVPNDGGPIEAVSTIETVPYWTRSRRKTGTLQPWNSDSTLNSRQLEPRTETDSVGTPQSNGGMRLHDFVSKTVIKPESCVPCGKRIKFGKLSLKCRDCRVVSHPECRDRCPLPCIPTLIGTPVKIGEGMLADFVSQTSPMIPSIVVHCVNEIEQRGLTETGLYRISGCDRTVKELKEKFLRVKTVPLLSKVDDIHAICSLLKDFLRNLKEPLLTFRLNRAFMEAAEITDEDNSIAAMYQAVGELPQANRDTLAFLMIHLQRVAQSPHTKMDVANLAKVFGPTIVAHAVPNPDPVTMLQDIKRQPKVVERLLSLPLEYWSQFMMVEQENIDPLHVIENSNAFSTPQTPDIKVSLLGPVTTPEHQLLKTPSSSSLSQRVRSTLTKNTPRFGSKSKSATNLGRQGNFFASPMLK

[3] = molecular target: T3, Corticotropin-releasing factor receptor 2/Corticotropin-releasing factor-binding protein (Homo sapiens, UniProt P24387+Q13324); experiment: Dose Response confirmation of uHTS hits for small molecule antagonists of the CRF-binding protein and CRF-R2 receptor complex.; format: functional; conditions: read-out: IC50_Mean
T3 sequence (Q13324 whole entry): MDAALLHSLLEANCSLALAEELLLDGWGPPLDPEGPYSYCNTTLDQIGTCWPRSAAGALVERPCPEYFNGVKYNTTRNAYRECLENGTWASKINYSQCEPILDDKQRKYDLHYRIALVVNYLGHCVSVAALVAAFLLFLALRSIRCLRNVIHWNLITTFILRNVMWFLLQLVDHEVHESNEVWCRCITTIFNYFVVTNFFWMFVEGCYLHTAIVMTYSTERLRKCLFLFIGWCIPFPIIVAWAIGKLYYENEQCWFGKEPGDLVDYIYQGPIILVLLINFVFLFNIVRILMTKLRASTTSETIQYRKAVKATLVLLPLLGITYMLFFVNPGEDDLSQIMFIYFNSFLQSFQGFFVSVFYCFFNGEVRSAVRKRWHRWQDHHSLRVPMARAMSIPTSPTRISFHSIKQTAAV
T3 sequence (P24387 whole entry): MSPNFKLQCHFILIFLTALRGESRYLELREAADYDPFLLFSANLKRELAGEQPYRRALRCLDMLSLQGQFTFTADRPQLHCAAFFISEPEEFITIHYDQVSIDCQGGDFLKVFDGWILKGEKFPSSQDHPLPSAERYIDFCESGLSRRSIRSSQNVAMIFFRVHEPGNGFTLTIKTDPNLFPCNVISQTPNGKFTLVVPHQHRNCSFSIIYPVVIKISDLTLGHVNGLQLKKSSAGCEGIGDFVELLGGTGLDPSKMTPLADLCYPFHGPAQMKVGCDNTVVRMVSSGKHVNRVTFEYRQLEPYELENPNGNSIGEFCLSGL

[4] = molecular target: T3, Corticotropin-releasing factor receptor 2/Corticotropin-releasing factor-binding protein; experiment: activators of CRF receptor 2 with binding protein – uHTS hits, confirmation (AID 602473); format: functional; conditions: read-out: EC50_Mean
[5] = molecular target: Cytochrome P450 2C9 (Homo sapiens, UniProt P11712)
[6] = molecular target: T1, Heat shock factor protein 1; experiment: HSF1 potentiators in luciferase reporter cells, confirmation, cell-based, NIH3T3, luminescence, dose retest (AID 435004); format: functional;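 note: stress induced by proteasome inhibitor MG132 added 30 min after compound; luciferase reporter driven by HSF1 response element in NIH3T3 cells; actives raise luminescence as potentiators of the MG132 stress response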
[7] = molecular target: Cytochrome P450 3A4 (Homo sapiens, UniProt P08684);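 note: CYP3A4 tested as one member of a cytochrome P450 panel screen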
[8] = molecular target: T4, Cytochrome P450 1A2 (Homo sapiens, UniProt P05177);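 note: PubChem cytochrome P450 panel assay, CYP1A2 panel member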
T4 sequence (P05177 whole entry): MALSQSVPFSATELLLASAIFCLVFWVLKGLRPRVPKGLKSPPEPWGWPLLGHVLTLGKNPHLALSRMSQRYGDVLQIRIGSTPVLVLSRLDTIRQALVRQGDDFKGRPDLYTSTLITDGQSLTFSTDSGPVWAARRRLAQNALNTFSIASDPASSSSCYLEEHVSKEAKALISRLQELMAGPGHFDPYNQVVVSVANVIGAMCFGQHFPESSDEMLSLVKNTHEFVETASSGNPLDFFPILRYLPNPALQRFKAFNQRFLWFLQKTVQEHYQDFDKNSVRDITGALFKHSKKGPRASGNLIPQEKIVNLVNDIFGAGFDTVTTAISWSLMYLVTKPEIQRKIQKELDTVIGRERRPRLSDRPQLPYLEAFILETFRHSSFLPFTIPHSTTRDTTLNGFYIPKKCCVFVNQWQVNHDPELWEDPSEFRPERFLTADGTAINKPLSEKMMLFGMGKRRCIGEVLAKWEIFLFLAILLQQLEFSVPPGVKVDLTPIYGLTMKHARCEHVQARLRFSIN

[9] = molecular target: Cytochrome P450 2C19 (Homo sapiens, UniProt P33261); experiment: Cytochrome panel assay with activity outcomes. Panel member name: p450-cyp2c19 Compounds with AC50 equal or less than 10 uM are considered active; format: functional; conditions: read-out: AC50
[10] = test system: H4; experiment: Luminescence Cell-Based Dose Response HTS to Identify Activators of 5'UTR Stem-Loop Driven Prion Protein mRNA Translation in H4 Neuroglioblastoma Cells. [Related pubchem assays: 1829 (Project Summary), 1814 (Primary HTS)]; format: functional; conditions: Homo sapiens
[11] = Luminescence Cell-Based Dose Response HTS to Identify Activators of Luciferase Translation or Activity in H4 […] Cells. [Related pubchem assays: 1829 (Project Summary), 1814 (Primary HTS)]; format: functional
[12] = Luminescence Cell-Based Dose Confirmation HTS to Identify Activators of 5'UTR Stem-Loop Driven Alpha-Synuclein mRNA Translation in H4 Neuroglioblastoma Cells. [Related pubchem assays: 1829 (Project Summary), 1814 (Primary HTS)]; format: functional

Cytochrome P450 3A4, sequence (P08684 whole entry): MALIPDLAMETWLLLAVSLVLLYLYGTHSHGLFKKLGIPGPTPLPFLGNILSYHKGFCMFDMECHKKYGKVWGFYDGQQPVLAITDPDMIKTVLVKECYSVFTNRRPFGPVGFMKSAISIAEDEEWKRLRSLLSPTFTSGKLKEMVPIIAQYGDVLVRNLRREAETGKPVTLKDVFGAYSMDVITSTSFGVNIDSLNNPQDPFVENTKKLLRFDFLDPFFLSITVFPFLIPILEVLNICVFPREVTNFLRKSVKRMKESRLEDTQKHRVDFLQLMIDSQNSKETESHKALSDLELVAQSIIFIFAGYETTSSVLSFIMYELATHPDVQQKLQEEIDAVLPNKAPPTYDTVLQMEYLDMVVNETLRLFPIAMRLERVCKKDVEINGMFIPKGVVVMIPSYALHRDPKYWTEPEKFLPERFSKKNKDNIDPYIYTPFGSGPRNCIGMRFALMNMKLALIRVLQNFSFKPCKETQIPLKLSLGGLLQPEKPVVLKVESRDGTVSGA
Cytochrome P450 2C9, sequence (P11712 whole entry): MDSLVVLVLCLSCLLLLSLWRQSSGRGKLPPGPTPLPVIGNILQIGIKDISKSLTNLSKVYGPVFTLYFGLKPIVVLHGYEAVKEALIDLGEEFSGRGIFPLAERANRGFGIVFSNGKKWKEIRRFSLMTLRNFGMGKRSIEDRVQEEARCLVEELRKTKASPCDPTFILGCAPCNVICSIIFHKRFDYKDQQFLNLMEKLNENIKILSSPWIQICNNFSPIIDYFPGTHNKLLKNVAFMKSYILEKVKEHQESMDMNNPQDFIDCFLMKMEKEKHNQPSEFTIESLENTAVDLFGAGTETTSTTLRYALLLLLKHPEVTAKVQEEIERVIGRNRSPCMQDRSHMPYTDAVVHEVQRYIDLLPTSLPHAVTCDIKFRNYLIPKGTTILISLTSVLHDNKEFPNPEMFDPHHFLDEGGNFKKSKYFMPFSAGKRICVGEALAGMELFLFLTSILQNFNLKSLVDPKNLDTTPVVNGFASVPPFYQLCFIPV
Cytochrome P450 2C19, sequence (P33261 whole entry): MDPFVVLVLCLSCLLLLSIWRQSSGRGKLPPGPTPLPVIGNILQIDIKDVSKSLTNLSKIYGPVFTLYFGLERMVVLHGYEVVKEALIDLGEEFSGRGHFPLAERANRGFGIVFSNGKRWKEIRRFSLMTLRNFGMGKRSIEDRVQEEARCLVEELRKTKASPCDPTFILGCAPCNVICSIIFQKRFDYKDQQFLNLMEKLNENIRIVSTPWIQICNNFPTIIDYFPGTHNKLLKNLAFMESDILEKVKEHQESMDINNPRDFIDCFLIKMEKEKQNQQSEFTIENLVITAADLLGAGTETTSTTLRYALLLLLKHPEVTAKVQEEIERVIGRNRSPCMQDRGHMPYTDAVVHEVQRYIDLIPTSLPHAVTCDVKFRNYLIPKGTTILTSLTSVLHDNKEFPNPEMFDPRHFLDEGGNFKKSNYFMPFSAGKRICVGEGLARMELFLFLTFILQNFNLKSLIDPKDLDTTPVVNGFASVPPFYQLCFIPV

## Fc1ccc(CNCc2ccccc2Cl)cc1
[1]
  EC50: > 195 µM (not active)
[2]
  IC50: 213 µM (active)

## O=C(Nc1ccccc1C(=O)N1CCOCC1)c1ccncc1
[3]
  IC50: > 47.1 µM (inactive)
[4]
  EC50: > 53 µM (inactive)

## O=C(COc1ccccc1)NCc1ccco1
[3]
  IC50: > 47.1 µM (inactive)
[4]
  EC50: > 53 µM (inactive)

## COc1ccc(-c2cn(-c3ccccc3)nc2CO)cc1
[1]
  EC50: > 195 µM (not active)

## COc1ccc(NC(=O)C2c3cc(OC)c(OC)cc3C(=O)N(C)C2c2cccnc2)cc1OC (stereo not drawn)
[5]
  AC50: 17.8 µM (inconclusive)

## C=CCN=C(S)Nc1ccc2nc(C)c(C)nc2c1
[5]
  AC50: 12.6 µM (inconclusive)

## O=C1NN(c2ccccc2)C(=O)/C1=C\c1ccc2c(c1)OCO2
[6]
  EC50: > 260 µM (inactive)

## Cc1ccc(=O)n(C(C(=O)NCc2ccco2)C(=O)c2ccc(F)cc2)c1 (stereo not drawn)
[6]
  EC50: > 260 µM (inactive)

## CCC[C@@H]1C[C@@]1(CCC)C(NC(=O)OCc1ccccc1)c1ccc(-c2ccccc2)cc1 (stereo partly drawn)
[7]
  AC50: 3.98 µM (inconclusive)
[5]
  AC50: 3.98 µM (inconclusive)

## CC(C)c1ccccc1-n1c(S)nnc1-c1cccnc1
[1]
  EC50: > 195 µM (not active)

## COc1ccc(N(CC(=O)NCCSc2ccccn2)S(=O)(=O)c2ccc(C)cc2)cc1OC
[3]
  IC50: > 47.1 µM (inactive)
[4]
  EC50: > 53 µM (inactive)

## COC(=O)c1ccc(NC(=O)c2ccccc2)o1
[8]
  AC50: 2.82 µM (inconclusive)
[5]
  AC50: 17.8 µM (inconclusive)

## CN(C)c1ccc(C2Nc3ccccc3C(=O)N2CCCN2CCOCC2)cc1 (stereo not drawn)
[1]
  EC50: 2.02 µM (active)

## COC(=O)[C@@]1(Cc2ccc(OC)cc2)[C@H]2c3cc(C(=O)N(C)C)n(CCSCCO)c3C[C@H]2CN1C(=O)c1ccccc1
[5]
  AC50: 12.6 µM (inconclusive)
[9]
  AC50: 20 µM (inconclusive)

## COc1ccc(N2CCN(CC(O)COCCOc3ccc(Br)cc3)CC2)cc1 (stereo not drawn)
[1]
  EC50: > 195 µM (not active)

## C=CCSc1nc2ccccc2c(=O)n1Cc1ccco1
[5]
  AC50: 3.98 µM (inconclusive)

## CC(C)N1C(=O)CN(C2CCCCCC2)C(=O)C1c1ccccc1F (stereo not drawn)
[10]
  EC50: 21 µM (active)
[11]
  EC50: 20.9 µM (active)
[1]
  EC50: 77.6 µM (active)
[12]
  EC50: 10.8 µM (active)

## Cc1cc(/C=C(/C#N)C(=O)O)c(C)n1-c1cccc2ccccc12
[3]
  IC50: 6.86 µM (active)
[4]
  EC50: > 53 µM (inactive)

## Cc1noc(C)c1COC(=O)c1cccc(S(=O)(=O)N2c3ccccc3CC2C)c1 (stereo not drawn)
[3]
  IC50: > 47.1 µM (inactive)
[4]
  EC50: > 53 µM (inactive)

## COCC(=O)N(C)[C@H]1C[C@H]2c3cc(N4CCN(C)CC4)ccc3CCN2C(=O)[C@H]1[C@H](C)O
[3]
  IC50: > 47.1 µM (inactive)
[4]
  EC50: > 53 µM (inactive)

## CCN(C(=O)Cn1c([N+](=O)[O-])cnc1C)c1ccccc1
[1]
  EC50: > 195 µM (not active)

## Cc1ccc(OCC(=O)NC(=S)Nc2ccccn2)c(Br)c1
[1]
  EC50: < 0.16 µM (active)

## COc1ccc(N2CCN(CCCNC(=O)C(=O)c3c(C)[nH]c4ccccc34)CC2)cc1
[3]
  IC50: > 47.1 µM (inactive)
[4]
  EC50: > 53 µM (inactive)

## CCOc1ccccc1NC(=O)C1=C(C)NC(=O)NC1c1cccc(OC)c1OC (stereo not drawn)
[5]
  AC50: 25.1 µM (inconclusive)

## CCOC(=O)CNC(=O)CSc1nnc(C)c(O)n1
[1]
  EC50: > 195 µM (not active)

## O=C(CN1CCCCC1)Nc1cccc2c1OCO2
[1]
  EC50: > 195 µM (not active)

## Cc1cccc(C)c1NC(=O)c1sccc1SCc1cccc(C(F)(F)F)c1
[3]
  IC50: > 47.1 µM (inactive)
[4]
  EC50: > 53 µM (inactive)

## COc1ccc(C(=O)NCCS(=O)(=O)N(C)C2CCCCC2)cc1
[3]
  IC50: > 47.1 µM (inactive)
[4]
  EC50: > 53 µM (inactive)

## Cc1nc2cnc(N3CCOCC3)nc2n(Cc2ccc(F)cc2)c1=O
[5]
  AC50: 31.6 µM (inconclusive)

## COC(=O)C1=CN(Cc2ccc(OC)c(OC)c2)C=C(C(=O)OC)C1c1ccccc1F
[1]
  EC50: > 195 µM (not active)

## O=C(OCc1ccc2c(c1)OCO2)c1ccc(S(=O)(=O)N2CCCC2)cc1
[3]
  IC50: > 47.1 µM (inactive)
[4]
  EC50: > 53 µM (inactive)

## CCOc1ccc(-n2cc(C(=O)NCc3ccco3)c3cc(OC)c(OC)cc3c2=O)cc1
[7]
  AC50: 22.4 µM (inconclusive)
[5]
  AC50: 4.47 µM (inconclusive)

## Cc1ccc(F)c(NC(=O)c2ccc(Cn3cc(Cl)cn3)cc2)c1
[1]
  EC50: > 195 µM (not active)

## CCCCN(CC)S(=O)(=O)N1CCC(C(=O)NCCCN2CCOCC2)CC1
[5]
  AC50: 25.1 µM (inconclusive)
[9]
  AC50: 1 µM (inconclusive)

## CC(C)(C)CC(C)(C)c1cc(O)c(O)c(CN2CCCCC2)c1
[7]
  AC50: 3.98 µM (inconclusive)
[5]
  AC50: 7.94 µM (inconclusive)

## COc1ccc(CCn2c3c(c(=O)[nH]c2=O)C(NC(=O)c2cccs2)(C(F)(F)F)C(=O)N3)cc1OC (stereo not drawn)
[7]
  AC50: 14.1 µM (inconclusive)
[5]
  AC50: 8.91 µM (inconclusive)

## CC1C(=O)C(C)C(c2ccco2)NC1c1ccco1 (stereo not drawn)
[1]
  EC50: > 195 µM (not active)

## O=C(CSc1ccc(-c2ccncc2)nn1)N1CCN(c2ccccc2)CC1
[3]
  IC50: > 47.1 µM (inactive)
[4]
  EC50: > 53 µM (inactive)

## COC(=O)c1ccc(N2CCN(C(C)=O)CC2)c(NC(=O)COc2ccccc2C)c1
[1]
  EC50: > 195 µM (not active)

## COc1ccc(Nc2cc(C(=O)NCCCN3CCN(C)CC3)c3ccccc3n2)cc1
[8]
  AC50: 10 µM (inconclusive)
[5]
  AC50: 14.1 µM (inconclusive)
